Measured values: patent publication US20080009418A1, “Selective Inhibitors” (Alchemia LTD., priority 2004, published 2008)

Columns and labels:
Human μ-opioid (MOP) = biological target: T1, Human μ-opioid (MOP) (Homo sapiens, UniProt P35372); experiment: Radioligand binding, human μ-opioid (MOP) membranes, FlashPlate, [3H]-Naloxone; conditions: compound at 10 μM; [3H]-Naloxone, human MOP membranes
T1 construct: purchased Perkin Elmer Biosignal
Summary of the method: (§1)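 Cloned human receptor membranes were coated onto FlashPlate wells and incubated with radioligand and compound (added from a 0.5 mM DMSO daughter plate) for 1 hour at room temperature in the dark. Scintillation counting gave percent inhibition, with DMSO defining total and reference ligand defining non-specific binding.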

Human κ-Opioid (KOP) = biological target: T2, Human κ-Opioid (KOP) (Homo sapiens, UniProt P41145); experiment: Radioligand binding, human κ-opioid (KOP) membranes, filtration, [3H]-Diprenorphine; conditions: compound at 10 μM; [3H]-Diprenorphine, human KOP membranes
T2 construct: purchased Perkin Elmer Biosignal
Summary of the method: (§2)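 Percent inhibition of radioligand binding measured on recombinant human membranes: NK1 with [125I]-Substance P, KOP with [3H]-Diprenorphine. Incubation 1 h at room temperature, then harvest onto 0.3% PEI-soaked filters, cold Tris-HCl pH 7.4 washes and scintillation counting; non-specific binding from reference ligand wells.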

[1] = biological target: T3, Human melanin-concentrating hormone (MCH1) (Homo sapiens, UniProt Q99705); experiment: Radioligand binding, human melanin-concentrating hormone MCH1 membranes, FlashPlate, [125I]-S36057; conditions: compound at 10 μM; [125I]-S36057, human MCH1 membranes
T3 construct: purchased Perkin Elmer Biosignal
Summary of the method: as §1

[2] = biological target: T4, Human neuropeptide Y (NPY-Y1) (Homo sapiens, UniProt P25929); experiment: Radioligand binding, human neuropeptide Y NPY-Y1 membranes, FlashPlate, [125I]-PYY; conditions: compound at 10 μM; [125I]-PYY, human NPY-Y1 membranes
T4 construct: purchased Perkin Elmer Biosignal
T4 sequence (P25929 1-384): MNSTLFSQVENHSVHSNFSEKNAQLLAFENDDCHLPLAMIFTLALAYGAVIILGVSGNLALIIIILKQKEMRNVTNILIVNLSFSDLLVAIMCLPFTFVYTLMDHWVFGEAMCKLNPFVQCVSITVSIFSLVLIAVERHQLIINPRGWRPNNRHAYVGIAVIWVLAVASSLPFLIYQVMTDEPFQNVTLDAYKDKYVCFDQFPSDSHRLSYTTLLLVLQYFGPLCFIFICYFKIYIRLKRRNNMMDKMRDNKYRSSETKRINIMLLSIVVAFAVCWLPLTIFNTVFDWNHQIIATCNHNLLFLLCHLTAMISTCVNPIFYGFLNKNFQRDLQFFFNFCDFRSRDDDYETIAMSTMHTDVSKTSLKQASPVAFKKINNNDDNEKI
Summary of the method: as §1

Human Melanocortin (MC3) = biological target: T5, Human Melanocortin (MC3) (Homo sapiens, UniProt P41968); experiment: Radioligand binding, human melanocortin MC3 membranes, FlashPlate, [125I]-NDP-αMSH; conditions: compound at 10 μM; [125I]-NDP-αMSH, human MC3 membranes
T5 construct: purchased Perkin Elmer Biosignal
Summary of the method: as §1

Human Melanocortin (MC4) = biological target: T6, Human Melanocortin (MC4) (Homo sapiens, UniProt P32245); experiment: Radioligand binding, human melanocortin MC4 membranes, FlashPlate, [125I]-NDP-αMSH; conditions: compound at 10 μM; [125I]-NDP-αMSH, human MC4 membranes
T6 construct: purchased Perkin Elmer Biosignal
Summary of the method: as §1

Mouse urotensin (mUR2) = biological target: T7, Mouse urotensin (mUR2) (Mus musculus, UniProt Q8VIH9); experiment: Radioligand binding, mouse urotensin mUR2 membranes, FlashPlate, [125I]-Urotensin II; conditions: compound at 10 μM; [125I]-Urotensin II, mouse mUR2 membranes
T7 construct: purchased Perkin Elmer Biosignal
T7 sequence (Q8VIH9 1-385): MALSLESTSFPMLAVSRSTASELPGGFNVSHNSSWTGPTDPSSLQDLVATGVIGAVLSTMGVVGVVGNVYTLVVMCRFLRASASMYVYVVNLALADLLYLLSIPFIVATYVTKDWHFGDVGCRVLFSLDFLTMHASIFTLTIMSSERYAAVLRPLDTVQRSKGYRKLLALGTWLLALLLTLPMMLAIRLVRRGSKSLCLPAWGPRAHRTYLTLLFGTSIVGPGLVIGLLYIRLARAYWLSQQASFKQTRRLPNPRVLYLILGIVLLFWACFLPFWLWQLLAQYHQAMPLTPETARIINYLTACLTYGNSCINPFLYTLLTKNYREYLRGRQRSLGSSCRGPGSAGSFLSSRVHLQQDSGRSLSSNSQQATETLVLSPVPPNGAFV
Summary of the method: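 Cloned mouse urotensin (mUR2) receptor membranes from Perkin Elmer Biosignal were immobilized in FlashPlate microplates using a proprietary coating. Each well got 19.5 μl buffer, then 0.5 μl of DMSO, reference ligand, or compound. Adding 5 μl of [125I]-Urotensin II, diluted to 5× final concentration in binding buffer, started binding. Plates were sealed with TopSeal-A and incubated 1 hour at room temperature in the dark. Wells were counted for 30 seconds each on a TopCount after a 60-second delay, and percentage inhibition was calculated.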

Human melanocortin (MC5) = biological target: T8, Human melanocortin (MC5) (Homo sapiens, UniProt P33032); experiment: Radioligand binding, human melanocortin MC5 membranes, FlashPlate, [125I]-NDP-αMSH; conditions: compound at 10 μM; [125I]-NDP-αMSH, human MC5 membranes
T8 construct: purchased Perkin Elmer Biosignal
Summary of the method: as §1

Human neurokinin (NK1) = biological target: T9, Human neurokinin (NK1) (Homo sapiens, UniProt P25103); experiment: Radioligand binding, human neurokinin NK1 membranes, filtration, [125I]-Substance P; conditions: compound at 10 μM; [125I]-Substance P, human NK1 membranes
T9 construct: purchased Perkin Elmer Biosignal
Summary of the method: as §2

Human δ-opioid (DOP) = biological target: T10, Human δ-opioid (DOP) (Homo sapiens, UniProt P41143); experiment: Radioligand binding, human δ-opioid (DOP) membranes, FlashPlate, [3H]-Bremazocine; conditions: compound at 10 μM; [3H]-Bremazocine, human DOP membranes
T10 construct: purchased Perkin Elmer Biosignal
Summary of the method: as §1

Human opioid (ORL1) = biological target: T11, Human opioid (ORL1) (Homo sapiens, UniProt P41146); experiment: Radioligand binding, human opioid ORL1 membranes, FlashPlate, [125I]-Nociceptin; conditions: compound at 10 μM; [125I]-Nociceptin, human ORL1 membranes
T11 construct: purchased Perkin Elmer Biosignal
Summary of the method: as §1

T9 sequence (P25103 whole entry): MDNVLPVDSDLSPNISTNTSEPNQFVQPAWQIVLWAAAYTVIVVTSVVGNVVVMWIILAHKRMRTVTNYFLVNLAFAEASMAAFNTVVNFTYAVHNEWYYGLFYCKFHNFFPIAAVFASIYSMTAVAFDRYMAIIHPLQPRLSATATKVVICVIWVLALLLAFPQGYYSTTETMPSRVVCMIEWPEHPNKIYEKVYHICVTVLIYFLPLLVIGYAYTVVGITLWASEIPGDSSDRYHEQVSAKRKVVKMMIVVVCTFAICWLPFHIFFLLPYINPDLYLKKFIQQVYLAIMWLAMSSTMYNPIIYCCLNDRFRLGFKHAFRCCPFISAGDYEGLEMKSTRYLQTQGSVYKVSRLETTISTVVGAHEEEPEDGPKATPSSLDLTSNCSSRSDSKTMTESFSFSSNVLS
T11 sequence (P41146 whole entry): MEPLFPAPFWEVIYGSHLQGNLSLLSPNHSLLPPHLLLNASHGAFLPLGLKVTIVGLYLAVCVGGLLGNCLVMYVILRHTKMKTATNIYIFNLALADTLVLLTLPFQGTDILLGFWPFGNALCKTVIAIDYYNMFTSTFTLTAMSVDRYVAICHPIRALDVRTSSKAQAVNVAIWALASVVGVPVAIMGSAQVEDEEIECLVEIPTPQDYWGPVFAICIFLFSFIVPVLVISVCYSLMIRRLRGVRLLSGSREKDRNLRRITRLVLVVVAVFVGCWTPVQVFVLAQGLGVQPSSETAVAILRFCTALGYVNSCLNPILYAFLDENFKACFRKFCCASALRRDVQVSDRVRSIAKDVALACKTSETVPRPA
T5 sequence (P41968 whole entry): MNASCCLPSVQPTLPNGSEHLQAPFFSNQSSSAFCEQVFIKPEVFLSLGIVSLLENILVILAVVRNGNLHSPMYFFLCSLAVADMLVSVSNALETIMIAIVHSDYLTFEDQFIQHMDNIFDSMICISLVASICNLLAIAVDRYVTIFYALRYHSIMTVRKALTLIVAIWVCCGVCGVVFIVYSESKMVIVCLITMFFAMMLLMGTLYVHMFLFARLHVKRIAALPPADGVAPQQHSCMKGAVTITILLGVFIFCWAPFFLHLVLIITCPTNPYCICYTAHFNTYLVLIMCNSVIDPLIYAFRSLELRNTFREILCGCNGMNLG
T3 sequence (Q99705 whole entry): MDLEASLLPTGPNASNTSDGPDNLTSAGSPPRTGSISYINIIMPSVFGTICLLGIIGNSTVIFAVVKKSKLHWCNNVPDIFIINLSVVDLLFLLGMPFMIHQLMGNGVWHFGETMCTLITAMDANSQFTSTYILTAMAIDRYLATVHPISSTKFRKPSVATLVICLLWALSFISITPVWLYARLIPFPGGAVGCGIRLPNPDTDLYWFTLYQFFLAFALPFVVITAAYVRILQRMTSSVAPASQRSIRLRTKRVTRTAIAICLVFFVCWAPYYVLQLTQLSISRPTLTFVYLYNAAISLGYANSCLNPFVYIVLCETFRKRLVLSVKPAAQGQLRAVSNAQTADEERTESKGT
T8 sequence (P33032 whole entry): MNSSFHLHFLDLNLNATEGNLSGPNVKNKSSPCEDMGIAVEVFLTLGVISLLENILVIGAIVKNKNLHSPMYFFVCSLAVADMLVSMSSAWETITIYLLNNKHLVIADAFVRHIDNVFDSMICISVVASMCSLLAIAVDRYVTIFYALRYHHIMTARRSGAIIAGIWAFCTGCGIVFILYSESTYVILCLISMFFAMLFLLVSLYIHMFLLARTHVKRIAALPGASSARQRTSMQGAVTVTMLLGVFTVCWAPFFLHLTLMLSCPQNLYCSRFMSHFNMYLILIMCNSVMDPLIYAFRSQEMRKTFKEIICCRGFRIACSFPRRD
T10 sequence (P41143 whole entry): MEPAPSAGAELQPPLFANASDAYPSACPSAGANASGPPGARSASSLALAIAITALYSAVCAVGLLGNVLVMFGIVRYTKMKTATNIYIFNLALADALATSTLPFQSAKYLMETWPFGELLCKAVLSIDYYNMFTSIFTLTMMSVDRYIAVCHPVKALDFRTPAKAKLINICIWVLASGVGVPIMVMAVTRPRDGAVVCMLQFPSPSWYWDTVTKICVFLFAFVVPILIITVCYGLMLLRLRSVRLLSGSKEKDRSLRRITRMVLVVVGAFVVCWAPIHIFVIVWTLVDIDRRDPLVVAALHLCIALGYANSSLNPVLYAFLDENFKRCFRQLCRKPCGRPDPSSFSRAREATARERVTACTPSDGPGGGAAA
T6 sequence (P32245 whole entry): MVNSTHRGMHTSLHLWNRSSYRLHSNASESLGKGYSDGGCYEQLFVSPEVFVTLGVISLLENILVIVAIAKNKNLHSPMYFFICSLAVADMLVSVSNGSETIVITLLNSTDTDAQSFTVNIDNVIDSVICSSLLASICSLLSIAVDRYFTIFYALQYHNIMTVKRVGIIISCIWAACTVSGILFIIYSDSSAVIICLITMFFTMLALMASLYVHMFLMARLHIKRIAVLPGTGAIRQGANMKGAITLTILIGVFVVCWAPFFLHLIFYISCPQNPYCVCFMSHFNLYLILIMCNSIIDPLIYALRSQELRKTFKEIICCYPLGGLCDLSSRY
T2 sequence (P41145 whole entry): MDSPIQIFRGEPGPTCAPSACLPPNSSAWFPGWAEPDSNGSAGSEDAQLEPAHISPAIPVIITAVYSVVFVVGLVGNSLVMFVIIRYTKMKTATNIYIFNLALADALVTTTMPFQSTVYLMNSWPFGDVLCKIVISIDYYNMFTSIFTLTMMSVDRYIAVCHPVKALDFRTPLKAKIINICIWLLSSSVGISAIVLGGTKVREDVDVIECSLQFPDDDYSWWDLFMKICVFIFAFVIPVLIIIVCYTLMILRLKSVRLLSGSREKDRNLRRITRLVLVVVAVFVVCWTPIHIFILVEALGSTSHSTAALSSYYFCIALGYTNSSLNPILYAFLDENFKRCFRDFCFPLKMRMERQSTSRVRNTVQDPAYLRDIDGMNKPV
T1 sequence (P35372 whole entry): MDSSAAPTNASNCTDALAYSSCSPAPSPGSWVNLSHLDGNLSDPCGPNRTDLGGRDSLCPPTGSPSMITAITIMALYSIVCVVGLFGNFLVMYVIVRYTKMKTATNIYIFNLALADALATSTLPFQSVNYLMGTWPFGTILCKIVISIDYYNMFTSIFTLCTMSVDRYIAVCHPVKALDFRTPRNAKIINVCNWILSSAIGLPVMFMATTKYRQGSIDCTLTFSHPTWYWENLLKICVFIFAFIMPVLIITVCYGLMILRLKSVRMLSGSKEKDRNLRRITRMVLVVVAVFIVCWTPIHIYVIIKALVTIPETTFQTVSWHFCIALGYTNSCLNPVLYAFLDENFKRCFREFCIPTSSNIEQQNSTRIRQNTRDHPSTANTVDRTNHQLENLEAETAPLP

N=C(N)NCC(=O)NC1C(OCc2ccc(Cl)cc2)OC(COCc2ccc3ccccc3c2)C(O)C1OCc1ccc(-c2ccccc2)cc1 (stereo not shown) [compound 423]
A7: inhibition of radioligand binding (Human μ-opioid (MOP)): − (“−” indicates less than 50% inhibition at 10 μM) | A2: inhibition of radioligand binding (Human κ-Opioid (KOP)): − (“−” indicates less than 50% inhibition at 10 μM) | A6: inhibition of radioligand binding [1]: − (“−” indicates less than 50% inhibition at 10 μM) | A9: inhibition of radioligand binding [2]: − (“−” indicates less than 50% inhibition at 10 μM) | A3: inhibition of radioligand binding (Human Melanocortin (MC3)): + (“+” indicates greater than 50% inhibition at 10 μM) | A4: inhibition of radioligand binding (Human Melanocortin (MC4)): + (“+” indicates greater than 50% inhibition at 10 μM) | A11: inhibition of radioligand binding (Mouse urotensin (mUR2)): − (“−” indicates less than 50% inhibition at 10 μM) | A5: inhibition of radioligand binding (Human melanocortin (MC5)): + (“+” indicates greater than 50% inhibition at 10 μM) | A8: inhibition of radioligand binding (Human neurokinin (NK1)): + (“+” indicates greater than 50% inhibition at 10 μM) | A1: inhibition of radioligand binding (Human δ-opioid (DOP)): − (“−” indicates less than 50% inhibition at 10 μM) | A10: inhibition of radioligand binding (Human opioid (ORL1)): + (“+” indicates greater than 50% inhibition at 10 μM)

N=C(N)NCC(=O)NC1C(OCc2ccc(Cl)cc2)OC(COCc2ccccc2)C(O)C1OCc1ccc(-c2ccccc2)cc1 (stereo not shown) [compound 424]
A7: inhibition of radioligand binding (Human μ-opioid (MOP)): − (“−” indicates less than 50% inhibition at 10 μM) | A2: inhibition of radioligand binding (Human κ-Opioid (KOP)): − (“−” indicates less than 50% inhibition at 10 μM) | A6: inhibition of radioligand binding [1]: − (“−” indicates less than 50% inhibition at 10 μM) | A9: inhibition of radioligand binding [2]: − (“−” indicates less than 50% inhibition at 10 μM) | A3: inhibition of radioligand binding (Human Melanocortin (MC3)): + (“+” indicates greater than 50% inhibition at 10 μM) | A4: inhibition of radioligand binding (Human Melanocortin (MC4)): + (“+” indicates greater than 50% inhibition at 10 μM) | A11: inhibition of radioligand binding (Mouse urotensin (mUR2)): − (“−” indicates less than 50% inhibition at 10 μM) | A5: inhibition of radioligand binding (Human melanocortin (MC5)): + (“+” indicates greater than 50% inhibition at 10 μM) | A8: inhibition of radioligand binding (Human neurokinin (NK1)): + (“+” indicates greater than 50% inhibition at 10 μM) | A1: inhibition of radioligand binding (Human δ-opioid (DOP)): − (“−” indicates less than 50% inhibition at 10 μM) | A10: inhibition of radioligand binding (Human opioid (ORL1)): − (“−” indicates less than 50% inhibition at 10 μM)

N=C(N)NCC(=O)NC1C(OCc2ccc(Cl)cc2)OC(COCc2ccc(Cl)cc2)C(O)C1OCc1ccc(-c2ccccc2)cc1 (stereo not shown) [compound 425]
A7: inhibition of radioligand binding (Human μ-opioid (MOP)): − (“−” indicates less than 50% inhibition at 10 μM) | A2: inhibition of radioligand binding (Human κ-Opioid (KOP)): − (“−” indicates less than 50% inhibition at 10 μM) | A6: inhibition of radioligand binding [1]: + (“+” indicates greater than 50% inhibition at 10 μM) | A9: inhibition of radioligand binding [2]: − (“−” indicates less than 50% inhibition at 10 μM) | A3: inhibition of radioligand binding (Human Melanocortin (MC3)): + (“+” indicates greater than 50% inhibition at 10 μM) | A4: inhibition of radioligand binding (Human Melanocortin (MC4)): + (“+” indicates greater than 50% inhibition at 10 μM) | A11: inhibition of radioligand binding (Mouse urotensin (mUR2)): − (“−” indicates less than 50% inhibition at 10 μM) | A5: inhibition of radioligand binding (Human melanocortin (MC5)): + (“+” indicates greater than 50% inhibition at 10 μM) | A8: inhibition of radioligand binding (Human neurokinin (NK1)): + (“+” indicates greater than 50% inhibition at 10 μM) | A1: inhibition of radioligand binding (Human δ-opioid (DOP)): − (“−” indicates less than 50% inhibition at 10 μM) | A10: inhibition of radioligand binding (Human opioid (ORL1)): + (“+” indicates greater than 50% inhibition at 10 μM)

N=C(N)NCCC(=O)NC1C(OCc2ccc(Cl)cc2)OC(COCc2ccc3ccccc3c2)C(O)C1OCc1ccc(Cl)cc1 (stereo not shown) [compound 426]
A7: inhibition of radioligand binding (Human μ-opioid (MOP)): − (“−” indicates less than 50% inhibition at 10 μM) | A2: inhibition of radioligand binding (Human κ-Opioid (KOP)): − (“−” indicates less than 50% inhibition at 10 μM) | A6: inhibition of radioligand binding [1]: + (“+” indicates greater than 50% inhibition at 10 μM) | A9: inhibition of radioligand binding [2]: + (“+” indicates greater than 50% inhibition at 10 μM) | A3: inhibition of radioligand binding (Human Melanocortin (MC3)): + (“+” indicates greater than 50% inhibition at 10 μM) | A4: inhibition of radioligand binding (Human Melanocortin (MC4)): + (“+” indicates greater than 50% inhibition at 10 μM) | A11: inhibition of radioligand binding (Mouse urotensin (mUR2)): − (“−” indicates less than 50% inhibition at 10 μM) | A5: inhibition of radioligand binding (Human melanocortin (MC5)): + (“+” indicates greater than 50% inhibition at 10 μM) | A8: inhibition of radioligand binding (Human neurokinin (NK1)): + (“+” indicates greater than 50% inhibition at 10 μM) | A1: inhibition of radioligand binding (Human δ-opioid (DOP)): − (“−” indicates less than 50% inhibition at 10 μM) | A10: inhibition of radioligand binding (Human opioid (ORL1)): + (“+” indicates greater than 50% inhibition at 10 μM)

N=C(N)NCCC(=O)NC1C(OCc2ccc(Cl)cc2)OC(COCc2ccccc2)C(O)C1OCc1ccc(Cl)cc1 (stereo not shown) [compound 427]
A7: inhibition of radioligand binding (Human μ-opioid (MOP)): − (“−” indicates less than 50% inhibition at 10 μM) | A2: inhibition of radioligand binding (Human κ-Opioid (KOP)): − (“−” indicates less than 50% inhibition at 10 μM) | A6: inhibition of radioligand binding [1]: + (“+” indicates greater than 50% inhibition at 10 μM) | A9: inhibition of radioligand binding [2]: − (“−” indicates less than 50% inhibition at 10 μM) | A3: inhibition of radioligand binding (Human Melanocortin (MC3)): + (“+” indicates greater than 50% inhibition at 10 μM) | A4: inhibition of radioligand binding (Human Melanocortin (MC4)): + (“+” indicates greater than 50% inhibition at 10 μM) | A11: inhibition of radioligand binding (Mouse urotensin (mUR2)): − (“−” indicates less than 50% inhibition at 10 μM) | A5: inhibition of radioligand binding (Human melanocortin (MC5)): + (“+” indicates greater than 50% inhibition at 10 μM) | A8: inhibition of radioligand binding (Human neurokinin (NK1)): + (“+” indicates greater than 50% inhibition at 10 μM) | A1: inhibition of radioligand binding (Human δ-opioid (DOP)): − (“−” indicates less than 50% inhibition at 10 μM) | A10: inhibition of radioligand binding (Human opioid (ORL1)): + (“+” indicates greater than 50% inhibition at 10 μM)
